Experimental data taken from patent US20230174507A1, “IMIDAZOLE 3-OXIDE DERIVATIVE BASED ACSS2 INHIBITORS AND METHODS OF USE THEREOF” (METABOMED LTD., priority 2020, published 2023).

Key:
human ACSS1 protein = target: T1, human ACSS1 protein (Homo sapiens, UniProt Q9NUB1); test: ACSS1 cell-free activity assay (pyrophosphatase-coupled, Biomol green); assay type: biochemical; details: 5 nM human ACSS1, 30 minutes at room temperature, absorbance at 620 nm
T1 construct: purchased MyBioSource
T1 sequence (Q9NUB1 38-689): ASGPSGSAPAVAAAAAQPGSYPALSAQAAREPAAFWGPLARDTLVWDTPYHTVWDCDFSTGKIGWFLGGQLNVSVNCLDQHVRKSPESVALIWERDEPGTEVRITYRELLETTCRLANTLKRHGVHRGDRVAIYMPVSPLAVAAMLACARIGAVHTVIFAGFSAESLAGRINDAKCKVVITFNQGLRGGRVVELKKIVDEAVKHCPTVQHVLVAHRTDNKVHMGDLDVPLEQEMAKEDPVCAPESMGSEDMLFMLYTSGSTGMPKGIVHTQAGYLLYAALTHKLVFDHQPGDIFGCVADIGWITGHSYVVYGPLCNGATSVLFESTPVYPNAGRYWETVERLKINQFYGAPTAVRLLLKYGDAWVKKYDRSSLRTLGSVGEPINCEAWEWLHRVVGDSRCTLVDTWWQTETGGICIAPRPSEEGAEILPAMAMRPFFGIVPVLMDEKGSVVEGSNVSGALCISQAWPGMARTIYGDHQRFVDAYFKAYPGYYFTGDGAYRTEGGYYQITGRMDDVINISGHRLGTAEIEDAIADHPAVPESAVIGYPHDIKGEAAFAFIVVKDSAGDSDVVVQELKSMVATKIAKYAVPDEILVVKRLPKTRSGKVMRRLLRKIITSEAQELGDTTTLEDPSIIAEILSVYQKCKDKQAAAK
How it was run: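 5 nM human ACSS1 incubated 30 min at RT with compound in pH 7.5 Hepes buffer with 15 μM CoA, 5 mM acetate, 300 μM ATP, 2 mM MgCl2 and pyrophosphatase. Released phosphate detected with Biomol Green (30 min), absorbance 620 nm. IC50 from constrained non-linear regression.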

human ACSS2 protein = target: T2, human ACSS2 protein (Homo sapiens, UniProt Q9NR19); test: ACSS2 cell-free activity assay (pyrophosphatase-coupled, Biomol green); details: 10 nM human ACSS2, 90 minutes at 37 C, absorbance at 620 nm; read-out: ACSS2 Biochemical IC50
T2 construct: purchased OriGene Technologies, Inc
T2 sequence (Q9NR19 whole entry): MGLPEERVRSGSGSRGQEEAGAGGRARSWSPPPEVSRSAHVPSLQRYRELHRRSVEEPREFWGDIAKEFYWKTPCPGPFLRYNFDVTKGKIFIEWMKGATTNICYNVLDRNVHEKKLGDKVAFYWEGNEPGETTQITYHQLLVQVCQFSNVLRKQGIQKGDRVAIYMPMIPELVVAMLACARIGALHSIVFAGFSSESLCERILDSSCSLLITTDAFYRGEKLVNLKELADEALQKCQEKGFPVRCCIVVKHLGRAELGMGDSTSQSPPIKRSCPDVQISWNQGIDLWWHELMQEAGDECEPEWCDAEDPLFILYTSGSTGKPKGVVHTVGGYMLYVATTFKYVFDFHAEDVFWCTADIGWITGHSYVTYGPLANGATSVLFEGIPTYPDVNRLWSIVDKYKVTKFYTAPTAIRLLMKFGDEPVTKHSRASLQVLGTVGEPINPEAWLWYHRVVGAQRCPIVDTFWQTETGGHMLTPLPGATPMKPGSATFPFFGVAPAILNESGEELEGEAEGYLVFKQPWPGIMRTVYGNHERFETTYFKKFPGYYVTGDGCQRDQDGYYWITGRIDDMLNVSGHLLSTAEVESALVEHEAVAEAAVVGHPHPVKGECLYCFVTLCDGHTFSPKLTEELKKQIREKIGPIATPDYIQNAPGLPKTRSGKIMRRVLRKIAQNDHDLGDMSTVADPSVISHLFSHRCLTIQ
How it was run: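 10 nM human ACSS2 incubated 90 min at 37 C with compound, 300 μM ATP, 10 μM CoA, 5 mM NaAc in pH 7.5 Hepes buffer with 0.5 U/ml pyrophosphatase. Released phosphate detected with Biomol Green at 620 nm; IC50 by non-linear regression constrained to 0% and 100%.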

[1] = target: T3, ACSS2 in MDA-MB-468 cells (Homo sapiens, UniProt Q9NR19); test: Cellular fatty-acid IC50: 13C-acetate incorporation into fatty acids (palmitate), LC-MS; assay type: cell-based; details: hypoxic conditions (1% O2), 75% charcoal stripped serum, 5 hours, 13C-acetate into palmitate, read-out: Cellular Fatty-acid IC50 High Serum MDA468
T3 construct: endogenous in cells; host or cells: MDA-MB-468 cells, hypoxia (1% O2)
T3 sequence (Q9NR19 whole entry): as above
How it was run: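 MDA-MB-468 cells under hypoxia (1% O2) treated 5 h with compound (0.000512-1000 nM) in medium with 75% charcoal-stripped serum and 0.5 mM 13C-acetate. 13C-palmitate quantified by LC-MS (negative ion, RSIM). IC50 from inhibition versus no-compound control, background-subtracted, constrained 0–100% nonlinear fit.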

Compound	ACSS1 Biochemical IC50 (nM) (human ACSS1 protein)	IC50 (human ACSS2 protein) [µM]	IC50 [1] [µM]
CNC(=O)c1cccc(NC(=O)c2c(C)[nH]c(-c3ccc(OC)c(-c4c(F)cccc4F)c3)[n+]2[O-])c1 [Compound 184, 2-(2′,6′-difluoro-6-methoxy-[1,1′-biphenyl]-3-yl)-5-methyl-4-((3-(methylcarbamoyl)phenyl)carbamoyl)-1H-imidazole 3-oxide]	Inactive	< 0.001	< 0.02
CCC(F)(F)c1cccc(NC(=O)c2c(C)[nH]c(-c3cc(-c4c(C)cccc4C)c(OC)cn3)[n+]2[O-])c1 [Compound 157, 4-((3-(1,1-difluoropropyl)phenyl)carbamoyl)-2-(4-(2,6-dimethylphenyl)-5-methoxypyridin-2-yl)-5-methyl-1H-imidazole 3-oxide]	Inactive	< 0.001	> 0.05
CNC(=S)c1cccc(NC(=O)c2c(C)[nH]c(-c3ccc(OC)c(-c4c(C)cccc4C)c3)[n+]2[O-])c1 [Compound 196, 2-(6-methoxy-2′,6′-dimethyl-[1,1′-biphenyl]-3-yl)-5-methyl-4-((3-(methylcarbamothioyl)phenyl)carbamoyl)-1H-imidazole 3-oxide]	Inactive	< 0.001	< 0.02
CCC(F)(F)c1cccc(NC(=O)c2c(C)[nH]c(-c3ccc(OC)c(-c4c(C)cccc4C)c3)[n+]2[O-])c1 [Compound 102, 4-((3-(1,1-difluoropropyl)phenyl)carbamoyl)-2-(6-methoxy-2′,6′-dimethyl-[1,1′-biphenyl]-3-yl)-5-methyl-1H-imidazole 3-oxide]	Inactive	< 0.001	< 0.02
Cc1cccc(C)c1-c1cc(C#N)cc(-c2[nH]c(C)c(C(=O)Nc3cccc(C(F)(F)C4CC4)c3)[n+]2[O-])c1 [Compound 135, 2-(5-cyano-2′,6′-dimethyl-[1,1′-biphenyl]-3-yl)-4-((3-(cyclopropyldifluoromethyl)phenyl)carbamoyl)-5-methyl-1H-imidazole 3-oxide]	Inactive	< 0.001	0.02 to 0.05
COc1ccc(-c2[nH]c(C)c(C(=O)Nc3cccc(C(=O)N(C)C)c3)[n+]2[O-])cc1-c1c(C)cccc1C [Compound 119, 4-((3-(dimethylcarbamoyl)phenyl)carbamoyl)-2-(6-methoxy-2′,6′-dimethyl-[1,1′-biphenyl]-3-yl)-5-methyl-1H-imidazole 3-oxide]	Inactive	< 0.001	< 0.02
CCC(F)(F)c1cccc(NC(=O)c2c(C)[nH]c(-c3ccc(OC(F)F)c(-c4c(C)cccc4C)c3)[n+]2[O-])c1 [Compound 103, 2-(6-(difluoromethoxy)-2′,6′-dimethyl-[1,1′-biphenyl]-3-yl)-4-((3-(1,1-difluoropropyl)phenyl)carbamoyl)-5-methyl-1H-imidazole 3-oxide]	Inactive	< 0.001	0.02 to 0.05
COc1cc(F)c(-c2[nH]c(C)c(C(=O)Nc3cccc(C(F)(F)C4CC4)c3)[n+]2[O-])cc1-c1c(C)cccc1C [Compound 137]	Inactive	< 0.001	> 0.05
